One data set addresses T1, Tau204-2163P (Homo sapiens, UniProt P10636).
T1 construct: made in house; host or cells: chemical solid-phase synthesis
Nature of the data set: Fluorescence titration of BODIPY-Zn(Dpa) with Tau204-2163P. It is filed as binding. How it is done:
The phosphorylated peptide-recognizing ability of BODIPY-Zn(Dpa) compound 9 (hereinafter referred to as BODIPY-Zn(Dpa)) was evaluated by measuring fluorescence spectra. Measurement was performed under the following conditions: [BODIPY-Zn(Dpa)]=5 μM; pH 7.2; 50 mM HEPES buffer; and 25° C. The excitation wavelength was λex=530 nm. […] When Tau2P was excessively added, this change reached saturation. The […] calculated from the fluorescence changes was 2.75×10^5 M^−1.
Fluorescence changes when peptide Tau204-2163P or Tau204-2162P used in Example 1 was added dropwise were measured to calculate the affinity (association constant).

Another data set relates to amyloid beta protein. Nature of the data set: Fluorescence staining of AD-affected human brain hippocampal tissue sections, costaining with anti-Aβ antibody. Particulars: 10 μM probe. How it is done: To investigate whether an excessively phosphorylated tau protein in brain tissues can be detected, a fluorescence staining experiment of hippocampal tissue sections from a human brain affected by Alzheimer (AD) and a normal brain was performed using BODIPY-Zn(Dpa). Specifically, hippocampal tissue sections from the AD-affected human brain or the normal brain were deparaffinized (xylene immersion for 5 min was repeated three times, then each section was immersed in 100%, 90%, 80% and 70% aqueous ethanol solution in stages [for 2 min each], and finally washed twice with water for 5 min), lipofuscin was removed (washed twice with PBS for 2 min, immersed in 0.25% by weight permanganate potassium/PBS for 30 min, washed twice with PBS for 2 min, immersed in 1% by weight oxalic acid and 1% by weight potassium pyrosulfate/PBS for 6 min and finally washed twice with PBS for 2 min), trypsin treatment was performed (washed twice with PBS-Tween at room temperature for 2 min and 0.05% Trypsin/PBS at 37° C. for 15 min), and finally washed twice with PBS-Tween at room temperature for 5 min, and costaining was performed using an antibody and BODIPY-Zn(Dpa). First, blocking was performed with 10% goat serum (37° C., 30 min) to remove 10% goat serum, then a primary antibody was added, and a reaction was performed at 4° C. for 17 to 19 h. […]

A short description of data set [1]: Delivery of BODIPY-Zn(Dpa) into brain after intravenous administration. Particulars: i.v. 1 mg/kg; for percent of the dose per gram of the mouse brain: rounded; for content in the brain / content in the brain based on the dose: mouse. The format is in vivo, ICR mouse. How it is done: BODIPY-Zn(Dpa) was intravenously administered to an ICR mouse (male, 7 weeks old) to measure the delivery thereof into the brain in vivo. Specifically, BODIPY-Zn(Dpa) (400 μL of 50 μM HBS solution) was injected from the caudal vein at a dose of 1 mg/kg, and the brain was collected at 2 or 30 min after administration. The collected brain (424 to 488 mg) was homogenized in 3 mL of an HBS solution using a spatula and homogenized by ultrasonic irradiation. BODIPY-Zn(Dpa) contained in the brain was quantified by reverse-phase HPLC to obtain the content of BODIPY-Zn(Dpa) in the brain based on the dose (% ID/g: % injected dose per gram of the brain). Fluorescence from the compound (excitation, 520 nm; fluorescence, 545 nm) was utilized for detection by HPLC.

The target in data set [2] is T2, phosphorylated tau aggregate (Homo sapiens, UniProt P10636).
T2 construct: made in house; host or cells: Escherichia coli
Nature of the data set: Fluorescence titration of phosphorylated tau aggregate against 100 nM BODIPY-Zn(Dpa). The format is binding. Particulars: compared with tau aggregate and amyloid β aggregate. On the procedure: The ranges of concentrations at which a phosphorylated tau aggregate, a tau aggregate, and an amyloid β aggregate interact with BODIPY-Zn(Dpa) were examined by titration. Titration was performed in the range of tau concentrations of 0 to 320 nM (0 to 14 μg/mL) against 100 nM of BODIPY-Zn(Dpa). Using a solvent obtained by adding 10% DMSO and 10 μM Zn(NO3)2 to HBS (10 mM HEPES (pH 7.4), 150 mM NaCl), the solution was incubated at 37° C. for 60 min, and fluorescence was measured (excitation wavelength, 490 nm; fluorescence wavelength, 545 nm).

The target of a further data set is T3, tau aggregate (Homo sapiens, UniProt P10636).
T3 construct: made in house; host or cells: Escherichia coli
As to the kind of experiment: Fluorescence titration of BODIPY-Zn(Dpa) against tau aggregate (EC50). It is filed as binding. Particulars: aggregate 1 μg/mL, 37° C., 30 min. How it is done:
(§1) BODIPY-Zn(Dpa) was titrated against a phosphorylated tau aggregate, a tau aggregate, and an amyloid β aggregate to obtain EC50 (a probe concentration at which a half value of the maximum change (ΔFmax) in fluorescence intensity is observed). BODIPY-Zn(Dpa) was titrated against an aggregate at a predetermined concentration (1 μg/mL), and changes in fluorescence intensity at each concentration (ΔF) were plotted. Using a solvent obtained by adding 10% DMSO and 100 μM Zn(NO3)2 to HBS (10 mM HEPES (pH 7.4), 150 mM NaCl), the solution was incubated at 37° C. for 30 min, and fluorescence was measured (excitation wavelength, 490 nm; fluorescence wavelength, 545 nm).

A further data set deals with T4, amyloid β aggregate (Homo sapiens, UniProt P05067).
T4 construct: (Aβ1-42) indicates amyloid β aggregate
Nature of the data set: Fluorescence titration of BODIPY-Zn(Dpa) against amyloid β aggregate (EC50). Particulars: aggregate 1 μg/mL, 37° C., 30 min. It is filed as binding. How it is done: as §1

T3 sequence (P10636 1-441 isoform P10636-8): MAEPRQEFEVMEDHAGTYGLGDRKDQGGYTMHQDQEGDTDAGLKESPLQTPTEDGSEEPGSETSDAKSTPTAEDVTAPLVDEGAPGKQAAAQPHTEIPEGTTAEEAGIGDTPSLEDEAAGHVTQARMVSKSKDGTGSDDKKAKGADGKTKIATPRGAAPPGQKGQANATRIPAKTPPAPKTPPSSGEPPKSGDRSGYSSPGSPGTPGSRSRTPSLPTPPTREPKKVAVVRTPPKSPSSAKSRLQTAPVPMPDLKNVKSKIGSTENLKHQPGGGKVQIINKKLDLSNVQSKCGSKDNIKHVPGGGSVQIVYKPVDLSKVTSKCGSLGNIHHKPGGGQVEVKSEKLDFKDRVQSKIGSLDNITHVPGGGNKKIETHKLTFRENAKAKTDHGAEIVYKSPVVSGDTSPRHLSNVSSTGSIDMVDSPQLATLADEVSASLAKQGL
T2 sequence (P10636 1-441 isoform P10636-8): as above
T4 sequence (P05067 672-713 limits assumed): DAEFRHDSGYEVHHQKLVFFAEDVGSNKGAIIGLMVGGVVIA

For orientation: EC50 means the concentration at which the effect is half-maximal. A lower EC50 goes with higher potency in that assay. Take `CC1=C(c2ccc(CN(C)Cc3ccccn3)nc2)C(C)=[N+]2C1=C(c1cc(OCCOCCOCCO)cc(OCCOCCOCCO)c1)c1c(C)c(-c3ccc(CN(C)Cc4ccccn4)nc3)c(C)n1[B-]2(F)F.O=[N+]([O-])[O-].O=[N+]([O-])[O-].O=[N+]([O-])[O-].O=[N+]([O-])[O-].[Zn+2].[Zn+2]` [BODIPY-Zn(Dpa)]: on Tau204-2163P (Tau204-216 3P (i, i+4, i+6)), the Association constant is 230000 M⁻¹ and the “I/I0 - 1 at saturation” value turned out to be 0.25. On Tau204-2163P (Tau204-2163P), the “detection of peptide by fluorescence change” value is given as “could be detected”. Further, the “coexistence of fluorescence with Aβ42 (anti-Aβ antibody) staining” value with amyloid beta protein is on record as “did not coexist”. Moreover, in data set [1] (2 min after administration), the “percent of the dose per gram of the mouse brain” value was found to be 0.5%, the “content in the brain” value was found to be 99.3 pmol/g brain and the “content in the brain based on the dose” value came out at 0.496 % ID/g. Also, in data set [1] (30 min after administration), the “percent of the dose per gram of the mouse brain” value came out at 0.02%, the “content in the brain” value turned out to be 3.96 pmol/g brain and the “content in the brain based on the dose” value is reported as 0.020 % ID/g. The “concentration at which fluorescence change occurred” value in data set [2] was “at the lowest concentration”. The compound further displayed an EC50 on tau aggregate of 80 nM. For the same compound, the EC50 on amyloid β aggregate worked out at 650 nM.

For the origin of these results see patent US8093060B2, “Multisite phosphorylated peptide (protein) recognizing compound and detection method, imaging method, alzheimer's disease diagnosing method and reagent kit using the same” (Canon Kabushiki Kaisha, priority 2008, dated 2012).
